According to patent publication US12077503B2, “Substituted cyclic amides and their use as herbicides” (FMC CORPORATION, priority 2015, dated 2024):

What was measured:
Type in all cases: in vivo
Kochia (Kochia scoparia) [1] = test: Test A preemergence; settings: for Plant response rating, Kochia: 125 g ai/ha; for Kochia plant response rating (0 to 100 scale, 0 is no effect, 100 is complete control): 500 g ai/ha, visual injury approx. 10 d
From the text: (§1) Seeds of plant species selected from barnyardgrass (Echinochloa crus-galli), Kochia (Kochia scoparia), ragweed (common ragweed, Ambrosia elatior), ryegrass, Italian (Italian ryegrass, Lolium multiflorum), crabgrass, large (Digitaria sanguinalis), giant foxtail (Setaria faberii), green foxtail (Setaria viridis), morningglory (Ipomoea spp.), pigweed (Amaranthus retroflexus), velvetleaf (Abutilon theophrasti), wheat (Triticum aestivum), and corn (Zea mays) were planted into a blend of loam soil and sand and treated preemergence with a directed soil spray using test chemicals formulated in anon-phytotoxic solvent mixture which included a surfactant.
(§2) At the same time, plants selected from these crop and weed species and also blackgrass (Alopecurus myosuroides), and Galium (catchweed bedstraw, Galium aparine) were planted in pots containing the same blend of loam soil and sand and treated with postemergence applications of test chemicals formulated in the same manner. Plants ranged in height from 2 to 10 cm and were in the one- to two-leaf stage for the postemergence treatment. Treated plants and untreated controls were maintained in a greenhouse for approximately 10 d, after which time all treated plants were compared to untreated controls and visually evaluated for injury. Plant response ratings, summarized in Table A, are based on a 0 to 100 scale where 0 is no effect and 100 is complete control. A dash (-) response means no test result.

[2] = tested on: barnyardgrass (Echinochloa crus-galli); test: Test A preemergence; settings: for Plant response rating, Barnyardgrass: 125 g ai/ha; for Barnyardgrass plant response rating (0 to 100 scale, 0 is no effect, 100 is complete control): 500 g ai/ha, visual injury approx. 10 d
From the text: as §1, §2

[3] = tested on: giant foxtail (Setaria faberii); test: Test A preemergence; settings: for Plant response rating, Foxtail, Giant: 125 g ai/ha; for Foxtail, Giant plant response rating (0 to 100 scale, 0 is no effect, 100 is complete control): 500 g ai/ha, visual injury approx. 10 d
From the text: as §1, §2

[4] = tested on: ragweed (common ragweed, Ambrosia elatior); test: Test A preemergence; settings: for Plant response rating, Ragweed: 125 g ai/ha; for Ragweed plant response rating (0 to 100 scale, 0 is no effect, 100 is complete control): 500 g ai/ha, visual injury approx. 10 d
From the text: as §1, §2

[5] = tested on: pigweed (Amaranthus retroflexus); test: Test A preemergence; settings: for Plant response rating, Pigweed: 125 g ai/ha; for Pigweed plant response rating (0 to 100 scale, 0 is no effect, 100 is complete control): 500 g ai/ha, visual injury approx. 10 d
From the text: as §1, §2

[6] = tested on: ryegrass, Italian (Italian ryegrass, Lolium multiflorum); test: Test A preemergence; settings: for Plant response rating, Ryegrass, Italian: 125 g ai/ha; for Ryegrass, Italian plant response rating (0 to 100 scale, 0 is no effect, 100 is complete control): 500 g ai/ha, visual injury approx. 10 d
From the text: as §1, §2

[7] = tested on: sedge, umbrella (small-flower umbrella sedge, Cyperus difformis); test: Test B flooded paddy test; settings: Flood, 0 to 100 scale where 0 is no effect and 100 is complete control, 13 to 15 d
Protocol: (§3) Plant species in the flooded paddy test selected from rice (Oryra sativa), sedge, umbrella (small-flower umbrella sedge, Cyperus difformis), ducksalad (Heteranthera limosa), and barnyardgrass (Echinochloa crus-galli) were grown to the 2-leaf stage for testing. At time of treatment, test pots were flooded to 3 cm above the soil surface, treated by application of test compounds directly to the paddy water, and then maintained at that water depth for the duration of the test. Treated plants and controls were maintained in a greenhouse for 13 to 15 d, after which time all species were compared to controls and visually evaluated. Plant response ratings, summarized in Table B, are based on a scale of 0 to 100 where 0 is no effect and 100 is complete control. A dash (-) response means no test result.

[8] = tested on: ducksalad (Heteranthera limosa); test: Test B flooded paddy test; settings: Flood, 0 to 100 scale where 0 is no effect and 100 is complete control, 13 to 15 d
Protocol: as §3

[9] = tested on: barnyardgrass (Echinochloa crus-galli); test: Test B flooded paddy test; settings: Flood, 0 to 100 scale where 0 is no effect and 100 is complete control, 13 to 15 d
Protocol: as §3

rice (Oryra sativa) = test: Test B flooded paddy test; settings: Flood, 0 to 100 scale where 0 is no effect and 100 is complete control, 13 to 15 d
Protocol: as §3

Kochia (Kochia scoparia) [10] = test: Test A postemergence
From the text: as §1, §2

[11] = tested on: barnyardgrass (Echinochloa crus-galli); test: Test A postemergence
From the text: as §1, §2

[12] = tested on: blackgrass (Alopecurus myosuroides); test: Test A postemergence
From the text: as §1, §2

[13] = tested on: giant foxtail (Setaria faberii); test: Test A postemergence
From the text: as §1, §2

[14] = tested on: ragweed (common ragweed, Ambrosia elatior); test: Test A postemergence
From the text: as §1, §2

corn (Zea mays) = test: Test A postemergence
From the text: as §1, §2

[15] = tested on: wheat (Triticum aestivum); test: Test A postemergence
From the text: as §1, §2

[16] = tested on: pigweed (Amaranthus retroflexus); test: Test A postemergence
From the text: as §1, §2

[17] = tested on: Galium (catchweed bedstraw, Galium aparine); test: Test A postemergence
From the text: as §1, §2

[18] = tested on: ryegrass, Italian (Italian ryegrass, Lolium multiflorum); test: Test A postemergence
From the text: as §1, §2

[19] = Preemergence, visual injury after approximately 10 d, 0 to 100 scale where 0 is no effect and 100 is complete control
[20] = 125 g ai/ha, postemergence, visual rating after approx. 10 d, 0 to 100 scale (0 no effect, 100 complete control)
[21] = Postemergence, 500 g ai/ha, 0 to 100 scale where 0 is no effect and 100 is complete control
[22] = preemergence, 0 to 100 scale (0 no effect, 100 complete control)
[23] = 125 g ai/ha, postemergence, visual injury rating on 0 to 100 scale (0 no effect, 100 complete control), approx. 10 d
[24] = 500 g ai/ha, postemergence, 0 to 100 scale, 0 no effect, 100 complete control

O=C1NCC(c2cc(F)ccc2F)C1C(=O)Nc1cccc(F)c1F (racemic) [Compound 546]
80: Plant response rating, Barnyardgrass [2, 19] | Plant response rating, Barnyardgrass [11, 20]
90: Barnyardgrass plant response rating (0 to 100 scale, 0 is no effect, 100 is complete control) ([2]; Preemergence) | Plant response rating, Foxtail, Giant [3, 19] | Foxtail, Giant plant response rating (0 to 100 scale, 0 is no effect, 100 is complete control) ([3]; Preemergence) | Plant response rating, Barnyardgrass [11, 21] | Plant response rating, Foxtail, Giant [13, 21]
85: Plant response rating, Ducksalad ([8]; 250 g ai/ha)
0: Plant response rating, Kochia (Kochia (Kochia scoparia) [1]; [19]) | Kochia plant response rating (0 to 100 scale, 0 is no effect, 100 is complete control) (Kochia (Kochia scoparia) [1]; Preemergence) | Plant response rating, Ragweed [4, 19] | Ragweed plant response rating (0 to 100 scale, 0 is no effect, 100 is complete control) ([4]; Preemergence) | Plant response rating, Pigweed [5, 19] | Pigweed plant response rating (0 to 100 scale, 0 is no effect, 100 is complete control) ([5]; Preemergence) | Plant response rating, Ryegrass, Italian [6, 19] | Ryegrass, Italian plant response rating (0 to 100 scale, 0 is no effect, 100 is complete control) ([6]; Preemergence) | Plant response rating, Sedge, Umbrella ([7]; 250 g ai/ha) | Plant response rating, Kochia (Kochia (Kochia scoparia) [10]; [20]) | Plant response rating, Kochia (Kochia (Kochia scoparia) [10]; [21]) | Plant response rating, Blackgrass [12, 20] | Plant response rating, Ragweed [14, 20] | Plant response rating, Ragweed [14, 21] | Plant response rating, Corn (corn (Zea mays); [20]) | Plant response rating, Wheat [15, 20] | Plant response rating, Wheat [15, 21] | Plant response rating, Pigweed [16, 20] | Plant response rating, Pigweed [16, 21] | Plant response rating, Galium [17, 20] | Plant response rating, Galium [17, 21] | Plant response rating, Ryegrass, Italian [18, 20] | Plant response rating, Ryegrass, Italian [18, 21]
20: Plant response rating, Rice (rice (Oryra sativa); 250 g ai/ha) | Plant response rating, Blackgrass [12, 21] | Plant response rating, Corn (corn (Zea mays); [21])
70: Plant response rating, Barnyardgrass ([9]; 250 g ai/ha) | Plant response rating, Foxtail, Giant [13, 20]

Cc1cc(NC(=O)C2C(=O)NCC2c2ccc(F)c(F)c2)ccc1C(F)(F)F (stereo not drawn) [Compound 414]
0: Plant response rating, Kochia (Kochia (Kochia scoparia) [1]; [22]) | Kochia plant response rating (0 to 100 scale, 0 is no effect, 100 is complete control) (Kochia (Kochia scoparia) [1]; Preemergence) | Plant response rating, Barnyardgrass [2, 22] | Barnyardgrass plant response rating (0 to 100 scale, 0 is no effect, 100 is complete control) ([2]; Preemergence) | Plant response rating, Foxtail, Giant [3, 22] | Plant response rating, Ragweed [4, 22] | Ragweed plant response rating (0 to 100 scale, 0 is no effect, 100 is complete control) ([4]; Preemergence) | Plant response rating, Pigweed [5, 22] | Pigweed plant response rating (0 to 100 scale, 0 is no effect, 100 is complete control) ([5]; Preemergence) | Plant response rating, Ryegrass, Italian [6, 22] | Ryegrass, Italian plant response rating (0 to 100 scale, 0 is no effect, 100 is complete control) ([6]; Preemergence) | Plant response rating, Sedge, Umbrella ([7]; 500 g ai/ha) | Plant response rating, Barnyardgrass ([9]; 500 g ai/ha) | Plant response rating, Rice (rice (Oryra sativa); 500 g ai/ha) | Kochia plant response rating (Kochia (Kochia scoparia) [10]; [23]) | Barnyardgrass plant response rating [11, 23] | Plant response rating, Barnyardgrass [11, 24] | Blackgrass plant response rating [12, 23] | Plant response rating, Blackgrass [12, 24] | Foxtail, Giant plant response rating [13, 23] | Plant response rating, Foxtail, Giant [13, 24] | Ragweed plant response rating [14, 23] | Plant response rating, Ragweed [14, 24] | Corn plant response rating (corn (Zea mays); [23]) | Plant response rating, Corn (corn (Zea mays); [24]) | Wheat plant response rating [15, 23] | Plant response rating, Wheat [15, 24] | Pigweed plant response rating [16, 23] | Plant response rating, Pigweed [16, 24] | Galium plant response rating [17, 23] | Plant response rating, Galium [17, 24] | Ryegrass, Italian plant response rating [18, 23] | Plant response rating, Ryegrass, Italian [18, 24]
10: Foxtail, Giant plant response rating (0 to 100 scale, 0 is no effect, 100 is complete control) ([3]; Preemergence) | Plant response rating, Kochia (Kochia (Kochia scoparia) [10]; [24])
40: Plant response rating, Ducksalad ([8]; 500 g ai/ha)
